According to patent US6995178B2, “Insecticidal anthranilamides” (E. I. du Pont de Nemours and Company, priority 2000, dated 2006):

melting point: 216 to 217 °C
Structure (SMILES): Cc1cccc(C(=O)NC(C)C)c1NC(=O)c1cnc(C(F)(F)F)nc1C [Example 5, 4-Methyl-N-[2-methyl-6-[[(1-methylethyl)amino]carbonyl]phenyl]-2-(trifluoromethyl)-5-pyrimidinecarboxamide]
